Reference: patent publication US4572895A, “Process for preparing an antibiotic complex by culturing actinomyces strain ATCC 39417” (priority 1985, dated 1986)
≈ marks a conversion by molar mass, not a printed value. Like-named read-outs stand apart in the source and are kept apart here.

Tests used:
[1] = tested on: Staphylococcus aureus 209P; assay: MIC, serial two-fold agar dilution; type: cell-based; details: nutrient agar
[2] = tested on: Staphylococcus aureus Smith; assay: MIC, serial two-fold agar dilution; type: cell-based; details: nutrient agar
[3] = tested on: Bacillus subtilis PCI 219; assay: MIC, serial two-fold agar dilution; type: cell-based; details: PCI219, nutrient agar
[4] = tested on: Micrococcus luteus PCI 1001; assay: MIC, serial two-fold agar dilution; type: cell-based; details: PCI1001, nutrient agar
[5] = tested on: Micrococcus flavus D12; assay: MIC, serial two-fold agar dilution; type: cell-based; details: nutrient agar
[6] = tested on: Escherichia coli NIHJ; assay: MIC, serial two-fold agar dilution; type: cell-based; details: nutrient agar
[7] = tested on: Klebsiella pneumoniae D11; assay: MIC, serial two-fold agar dilution; type: cell-based; details: nutrient agar
[8] = tested on: Pseudomonas aeruginosa D15; assay: MIC, serial two-fold agar dilution; type: cell-based; details: nutrient agar
[9] = tested on: Candida albicans IAM 4888; assay: MIC, serial two-fold agar dilution; type: cell-based; details: IAM4888, Sabouraud agar
[10] = tested on: Cryptococcus neoformans D49; assay: MIC, serial two-fold agar dilution; type: cell-based; details: Sabouraud agar
[11] = tested on: Aspergillus fumigatus IAM 2530; assay: MIC, serial two-fold agar dilution; type: cell-based; details: IAM2530, Sabouraud agar
[12] = tested on: Trichophyton mentagrophytes D155; assay: MIC, serial two-fold agar dilution; type: cell-based; details: Sabouraud agar
[13] = tested on: Clostridium difficile; assay: MIC, serial two-fold agar dilution; type: cell-based; details: Clostridioides difficile; GAM agar, anaerobe
[14] = tested on: gram-negative bacteria and fungi; assay: antibacterial/antifungal activity (MIC), summary; type: cell-based
[15] = tested on: P388, L1210 and B16 tumors; assay: antitumor activity in mice, summary over P388, L1210 and B16; type: in vivo, BDF1 mice; details: experimental mouse tumors
[16] = solubility; type: physicochemical; details: acidic water
[17] = tested on: aerobic gram-positive bacteria and anaerobic bacteria; assay: antibacterial activity, summary; type: cell-based
Description: Nutrient agar medium was used for gram-positive and gram-negative bacteria, GAM agar medium for anaerobes and Sabouraud agar medium for fungi.

[18] = tested on: Bacteroides fragilis; assay: MIC, serial two-fold agar dilution; type: cell-based; details: GAM agar, anaerobe
[19] = tested on: Clostridium perfringens; assay: microbe, parasite or virus in culture; type: cell-based
[20] = tested on: Propionibacterium acnes; assay: MIC, serial two-fold agar dilution; type: cell-based; details: Cutibacterium acnes; GAM agar, anaerobe
[21] = tested on: lymphocytic leukemia P388; details: qd 1→9
[22] = tested on: lymphoid leukemia L1210; details: qd 1→9
[23] = tested on: melanotic melanoma B16; details: qd 1→9
[24] = tested on: melanotic melanoma B16; assay: antitumor activity, B16 melanoma in mice; details: qd 1→9
[25] = tested on: lymphocytic leukemia P388; assay: antitumor activity, P388 leukemia in mice; details: qd 1→9
[26] = tested on: lymphoid leukemia L1210; assay: antitumor activity, L1210 leukemia in mice; details: qd 1→9

Q: Which MIC [1] does the source give for `Cc1ccc2oc(=O)c3c(O)c4cccc(O[C@@H]5O[C@H](C)[C@H](O)[C@](C)(O)[C@H]5O)c4c4oc(=O)c1c2c34` [BBM-2478B] here?
A: 3.1 µg/mL (≈ 6.27 µM)

Q: And the MIC [2]?
A: 6.3 µg/mL (≈ 12.7 µM)

Q: And the MIC [3]?
A: 0.8 µg/mL (≈ 1.62 µM)

Q: What about the MIC [4] of the same compound?
A: 3.1 µg/mL (≈ 6.27 µM)

Q: And the MIC [5]?
A: 1.6 µg/mL (≈ 3.24 µM)

Q: And the MIC [6]?
A: > 100 µg/mL

Q: And the MIC [7]?
A: > 100 µg/mL

Q: What about the MIC [8] of the same compound?
A: > 100 µg/mL

Q: What about the MIC [9] of the same compound?
A: > 100 µg/mL

Q: What about the MIC [10] of the same compound?
A: > 100 µg/mL

Q: And the MIC [11]?
A: > 100 µg/mL

Q: And the MIC [12]?
A: > 100 µg/mL

Q: And the MIC [13]?
A: 25 µg/mL (≈ 50.6 µM)

Q: What about the “activity against gram-negative bacteria and fungi” value [14] of the same compound?
A: inactive

Q: And the antitumor activity [15]?
A: devoid of antitumor activity

Q: And the “solubility in acidic water” value [16]?
A: insoluble

Q: And the antibacterial activity [17]?
A: potent antibacterial activity

Q: Which results are given for `CO[C@H]1[C@@H](O)[C@@H](C)O[C@H](O[C@H]2[C@H](Oc3cccc4c(O)c5c(=O)oc6ccc(C)c7c(=O)oc(c34)c5c67)O[C@H](C)[C@H](O)[C@@H]2O)[C@@H]1O` [Chartreusin, reference compound]?
A: MIC [1]: 3.1 µg/mL (≈ 4.84 µM); MIC [2]: 6.3 µg/mL (≈ 9.83 µM); MIC [3]: 0.4 µg/mL (≈ 0.624 µM); MIC [4]: 0.8 µg/mL (≈ 1.25 µM); MIC [5]: 0.4 µg/mL (≈ 0.624 µM); MIC [6]: > 100 µg/mL; MIC [7]: > 100 µg/mL; MIC [8]: > 100 µg/mL; MIC [9]: > 100 µg/mL; MIC [10]: > 100 µg/mL; MIC [11]: > 100 µg/mL; MIC [12]: > 100 µg/mL; MIC [18]: 6.3 µg/mL (≈ 9.83 µM); MIC [19]: 1.6 µg/mL (≈ 2.5 µM); MIC [20]: 3.1 µg/mL (≈ 4.84 µM); activity against gram-negative bacteria and fungi [14]: inactive; MST ([21]; 0.1 mg/kg/day ip): 9.0 days; MST ([21]; 0.3 mg/kg/day ip): 10.5 days; MST ([21]; 10 mg/kg/day ip): 19.5 days; MST ([22]; 0.1 mg/kg/day ip): 8.0 days; MST ([22]; 0.3 mg/kg/day ip): 8.0 days; MST ([22]; 1 mg/kg/day ip): 9.0 days; MST ([22]; 3 mg/kg/day ip): 9.0 days; MST ([22]; 10 mg/kg/day ip): 11.5 days; MST ([23]; 0.3 mg/kg/day ip): 14.0 days; MST ([23]; 1 mg/kg/day ip): 16.0 days; MST ([23]; 3 mg/kg/day ip): 20.5 days; MST ([23]; 10 mg/kg/day ip): 25.0 days; Average wt. change on day 5 ([24]; 0.3 mg/kg/day ip): +1.8 g; Survivors on day 5 ([24]; 0.3 mg/kg/day ip): 6/6; Survivors on day 45 ([24]; 0.3 mg/kg/day ip): 0/6; T/C ([24]; 0.3 mg/kg/day ip): 100%; Average wt. change on day 5 ([24]; 1 mg/kg/day ip): +2.3 g; Survivors on day 5 ([24]; 1 mg/kg/day ip): 6/6; T/C ([24]; 1 mg/kg/day ip): 114%; Average wt. change on day 5 ([24]; 3 mg/kg/day ip): +2.3 g; Survivors on day 5 ([24]; 3 mg/kg/day ip): 6/6; Survivors on day 45 ([24]; 3 mg/kg/day ip): 0/6; Average wt. change on day 5 ([24]; 10 mg/kg/day ip): +1.7 g; Survivors on day 5 ([24]; 10 mg/kg/day ip): 6/6; Survivors on day 45 ([24]; 10 mg/kg/day ip): 0/6; Average wt. change on day 5 ([25]; 0.1 mg/kg/day ip): +2.8 g; Survivors on day 5 ([25]; 0.1 mg/kg/day ip): 6/6; Survivors on day 45 ([25]; 0.1 mg/kg/day ip): 0/6; T/C ([25]; 0.1 mg/kg/day ip): 100%; Average wt. change on day 5 ([25]; 0.3 mg/kg/day ip): +2.0 g; Survivors on day 5 ([25]; 0.3 mg/kg/day ip): 6/6; Survivors on day 45 ([25]; 0.3 mg/kg/day ip): 0/6; T/C ([25]; 0.3 mg/kg/day ip): 117%; Average wt. change on day 5 ([25]; 1 mg/kg/day ip): +1.3 g; MST ([25]; 1 mg/kg/day ip): 14.0 days; Survivors on day 5 ([25]; 1 mg/kg/day ip): 6/6; Survivors on day 45 ([25]; 1 mg/kg/day ip): 0/6; Average wt. change on day 5 ([25]; 3 mg/kg/day ip): +1.5 g; MST ([25]; 3 mg/kg/day ip): 15.0 days; Survivors on day 5 ([25]; 3 mg/kg/day ip): 6/6; Survivors on day 45 ([25]; 3 mg/kg/day ip): 0/6; Average wt. change on day 5 ([25]; 10 mg/kg/day ip): +1.3 g; Survivors on day 5 ([25]; 10 mg/kg/day ip): 6/6; Survivors on day 45 ([25]; 10 mg/kg/day ip): 0/6; Average wt. change on day 5 ([26]; 0.1 mg/kg/day ip): +3.1 g; Survivors on day 5 ([26]; 0.1 mg/kg/day ip): 6/6; Survivors on day 45 ([26]; 0.1 mg/kg/day ip): 0/6; T/C ([26]; 0.1 mg/kg/day ip): 100%; Average wt. change on day 5 ([26]; 0.3 mg/kg/day ip): +3.2 g; Survivors on day 5 ([26]; 0.3 mg/kg/day ip): 6/6; Survivors on day 45 ([26]; 0.3 mg/kg/day ip): 0/6; T/C ([26]; 0.3 mg/kg/day ip): 100%; Average wt. change on day 5 ([26]; 1 mg/kg/day ip): +1.9 g; Survivors on day 5 ([26]; 1 mg/kg/day ip): 6/6; Survivors on day 45 ([26]; 1 mg/kg/day ip): 0/6; T/C ([26]; 1 mg/kg/day ip): 113%; Average wt. change on day 5 ([26]; 3 mg/kg/day ip): +1.4 g; Survivors on day 5 ([26]; 3 mg/kg/day ip): 6/6; Survivors on day 45 ([26]; 3 mg/kg/day ip): 0/6; T/C ([26]; 3 mg/kg/day ip): 113%; Average wt. change on day 5 ([26]; 10 mg/kg/day ip): +1.3 g; Survivors on day 5 ([26]; 10 mg/kg/day ip): 6/6; Survivors on day 45 ([26]; 10 mg/kg/day ip): 0/6
